Drawing on PubChem BioAssay AID1745844 (Carcinogenic Potency Database (CPDB), 2022), this text covers carcinogen call and TD50 for five compounds.

Calls of active or inactive are those of the source. No rule for the calls is given here.

This data set has as its system rodent lifetime carcinogenesis bioassay, tumor incidence TD50. Description: carcinogenic potency in animals, long-term in vivo studies, CPDB compilation (AID 1745844).

One may read the TD50 as the 50% point of the dose-response relation for the toxic effect studied. Turning to `NCCNc1cccc2ccccc12`, the carcinogen call reads like this: (mouse, strain B6C3F1, females, in feed, site: any site (literature study), lesion: several types, types named in the paper, dosed 104 weeks, study length 106 weeks) “negative (inactive)”; (mouse, strain B6C3F1, males, in feed, site: any site (literature study), lesion: several types, types named in the paper, dosed 104 weeks, study length 104 weeks) “negative (inactive)”. Moreover, the TD50 was 25600 mg/kg/day (mouse, strain B6C3F1, females, in feed, site: liver, lesion: hepatocellular adenoma + hepatocellular carcinoma + neoplastic nodule, dosed 104 weeks, study length 106 weeks); 4390 mg/kg/day (mouse, strain B6C3F1, females, in feed, site: lung, lesion: alveolar/bronchiolar adenoma + alveolar/bronchiolar carcinoma, dosed 104 weeks, study length 106 weeks); 93.5 mg/kg/day (rat, strain Fischer 344, females, in feed, site: liver, lesion: hepatocellular adenoma + hepatocellular carcinoma + neoplastic nodule, dosed 104 weeks, study length 107 weeks); 93.5 mg/kg/day (inactive) (rat, strain Fischer 344, females, in feed, site: liver, lesion: hepatocellular carcinoma + neoplastic nodule, dosed 104 weeks, study length 107 weeks); 41.6 mg/kg/day (inactive) (rat, strain Fischer 344, males, in feed, site: any site (literature study), lesion: several types, types named in the paper, dosed 104 weeks, study length 107 weeks).

Turning to `CN(C)c1ccc(C(=N)c2ccc(N(C)C)cc2)cc1`, the TD50 is, setting by setting: (mouse, strain CBA, females, in feed, site: liver, lesion: hepatoma, dosed 52 weeks, study length 99 weeks) 67.7 mg/kg/day; (mouse, strain CBA, males, in feed, site: liver, lesion: hepatoma, dosed 52 weeks, study length 79 weeks) 77.5 mg/kg/day; (mouse, strain albino, females, in feed, site: liver, lesion: hepatoma, dosed 52 weeks, study length 79 weeks) 94.3 mg/kg/day; (mouse, strain albino, males, in feed, site: liver, lesion: hepatoma, dosed 52 weeks, study length 84 weeks) 39.2 mg/kg/day; (rat, strain Wilmslow Wistar, males, in feed, site: liver, lesion: hepatoma, dosed 87 weeks, study length 125 weeks) 11 mg/kg/day.

Take `Cc1cccc2ccccc12`: the TD50 runs as follows: (mouse, strain B6C3F1, females, in feed, site: liver, lesion: hepatocellular adenoma, dosed 81 weeks, study length 81 weeks) 979 mg/kg/day; (mouse, strain B6C3F1, females, in feed, site: liver, lesion: hepatocellular carcinoma, dosed 81 weeks, study length 81 weeks) 6040 mg/kg/day; (mouse, strain B6C3F1, males, in feed, site: any site (literature study), lesion: one or several types, types not named, dosed 81 weeks, study length 81 weeks) 2260 mg/kg/day; (mouse, strain B6C3F1, males, in feed, site: lung, lesion: alveolar/bronchiolar adenoma, dosed 81 weeks, study length 81 weeks) 244 mg/kg/day; (mouse, strain B6C3F1, males, in feed, site: lung, lesion: alveolar/bronchiolar carcinoma, dosed 81 weeks, study length 81 weeks) 1830 mg/kg/day; (mouse, strain B6C3F1, males, in feed, site: lung, lesion: several types, types named in the paper, dosed 81 weeks, study length 81 weeks) 201 mg/kg/day.

On to `S=C=Nc1ccccc1`, for which the TD50 is 39.4 mg/kg/day (inactive) (mouse, strain B6AKF1, females, oral dosing, site: any site (literature study), lesion: several types, types named in the paper, dosed 76 weeks, study length 76 weeks); 138 mg/kg/day (inactive) (mouse, strain B6AKF1, females, oral dosing, site: liver, lesion: hemangioma, dosed 76 weeks, study length 76 weeks); 40.2 mg/kg/day (inactive) (mouse, strain B6C3F1, males, oral dosing, site: any site (literature study), lesion: several types, types named in the paper, dosed 76 weeks, study length 76 weeks); 128 mg/kg/day (inactive) (mouse, strain B6C3F1, males, oral dosing, site: liver, lesion: hepatoma, dosed 76 weeks, study length 76 weeks); 128 mg/kg/day (inactive) (mouse, strain B6C3F1, males, oral dosing, site: lung, lesion: adenoma, dosed 76 weeks, study length 76 weeks). The carcinogen call was “negative (inactive)” (mouse, strain B6AKF1, females, oral dosing, site: lung, lesion: adenoma, dosed 76 weeks, study length 76 weeks); “negative (inactive)” (mouse, strain B6AKF1, males, oral dosing, site: any site (literature study), lesion: several types, types named in the paper, dosed 76 weeks, study length 76 weeks); “negative (inactive)” (mouse, strain B6AKF1, males, oral dosing, site: liver, lesion: hepatoma, dosed 76 weeks, study length 76 weeks); “negative (inactive)” (mouse, strain B6AKF1, males, oral dosing, site: lung, lesion: adenoma, dosed 76 weeks, study length 76 weeks); “negative (inactive)” (mouse, strain B6C3F1, females, oral dosing, site: any site (literature study), lesion: one or several types, types not named, dosed 76 weeks, study length 76 weeks); “negative (inactive)” (mouse, strain B6C3F1, females, oral dosing, site: liver, lesion: hepatoma, dosed 76 weeks, study length 76 weeks). Besides, the carcinogen call (mouse, strain B6C3F1, females, oral dosing, site: lung, lesion: several types, types named in the paper, dosed 76 weeks, study length 76 weeks) is “negative (inactive)”.

As to `CCC[N+](=O)[O-]`, the carcinogen call reads like this: (rat, strain Long-Evans BLU:(LE), females, inhaled, site: liver, lesion: hepatocellular carcinoma, dosed 52 weeks, study length 52 weeks) “negative (inactive)”; (rat, strain Long-Evans BLU:(LE), females, inhaled, site: liver, lesion: hepatocellular carcinoma, dosed 52 weeks, study length 93 weeks) “negative (inactive)”; (rat, strain Long-Evans BLU:(LE), females, inhaled, site: liver, lesion: hepatocellular carcinoma, dosed 78 weeks, study length 78 weeks) “negative (inactive)”; (rat, strain Long-Evans BLU:(LE), females, inhaled, site: liver, lesion: hepatocellular carcinoma, dosed 93 weeks, study length 93 weeks) “negative (inactive)”; (rat, strain Long-Evans BLU:(LE), males, inhaled, site: liver, lesion: hepatocellular carcinoma, dosed 52 weeks, study length 52 weeks) “negative (inactive)”; (rat, strain Long-Evans BLU:(LE), males, inhaled, site: liver, lesion: hepatocellular carcinoma, dosed 52 weeks, study length 93 weeks) “negative (inactive)”. Moreover, the carcinogen call is “negative (inactive)” (rat, strain Long-Evans BLU:(LE), males, inhaled, site: liver, lesion: hepatocellular carcinoma, dosed 78 weeks, study length 78 weeks) and “negative (inactive)” (rat, strain Long-Evans BLU:(LE), males, inhaled, site: liver, lesion: hepatocellular carcinoma, dosed 93 weeks, study length 93 weeks). Also, the TD50 (rat, strain Sprague-Dawley, males, by gavage, site: liver, lesion: hepatocellular adenoma, dosed 26 weeks, study length 77 weeks) was 0.872 mg/kg/day (inactive).
